From patent publication US8513238B2 (Hoffmann-La Roche Inc., priority 2010, dated 2013) come the findings set out here.

T1 sequence (P37288 whole entry): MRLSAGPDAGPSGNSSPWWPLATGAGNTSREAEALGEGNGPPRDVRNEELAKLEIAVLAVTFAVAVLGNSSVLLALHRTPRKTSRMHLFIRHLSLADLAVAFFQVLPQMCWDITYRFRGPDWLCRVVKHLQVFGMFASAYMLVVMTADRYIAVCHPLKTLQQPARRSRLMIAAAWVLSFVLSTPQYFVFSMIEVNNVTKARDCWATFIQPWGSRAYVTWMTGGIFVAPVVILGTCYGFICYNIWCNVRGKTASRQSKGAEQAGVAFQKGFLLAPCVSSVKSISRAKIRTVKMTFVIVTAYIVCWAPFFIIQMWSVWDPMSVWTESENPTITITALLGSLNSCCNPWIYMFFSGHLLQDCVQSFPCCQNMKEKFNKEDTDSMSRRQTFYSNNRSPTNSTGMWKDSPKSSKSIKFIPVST

This assay has as its target T1, human V1a receptor (Homo sapiens, UniProt P37288).
T1 construct: expressed in transfected cells; host or cells: HEK293 cells, transiently transfected; membranes prepared
Put plainly: human V1a receptor binding (3H-Vasopressin SPA, HEK293 membranes). Particulars: membranes of HEK293 cells transiently transfected with human V1a receptor, Ki by Cheng-Prussoff, read-out: pKi (hV1a) (converted). As for the experimental part: The human V1a receptor was cloned by RT-PCR from total human liver RNA. The coding sequence was subcloned in an expression vector after sequencing to confirm the identity of the amplified sequence. […] Cell membranes were prepared from HEK293 cells transiently transfected with the expression vector and grown in 20 liter fermenters with the following protocol.
50 g of cells are resuspended in 30 ml freshly prepared ice cold Lysis buffer (50 mM HEPES, 1 mM EDTA, 10 mM magnesium dichloride adjusted to pH=7.4+complete cocktail of protease inhibitor (Roche Diagnostics)). Homogenized with Polytron for 1 min and sonicated on ice for 2×2 minutes at 80% intensity (Vibracell sonicator). The preparation is centrifuged 20 min at 500 g at 4° C., the pellet is discarded and the supernatant centrifuged 1 hour at 43,000 g at 4° C. (19,000 rpm). The pellet is resuspended in 12.5 ml Lysis buffer+12.5 ml sucrose 20% and homogenized using a Polytron for 1-2 min. The protein concentration is determined by the Bradford method and aliquots are stored at −80° C. until use. For binding studies 60 mg Yttrium silicate SPA beads (Amersham®) are mixed with an aliquot of membrane in binding buffer (50 mM Tris, 120 mM sodium chloride, 5 mM potassium chloride, 2 mM calcium dichloride, 10 mM magnesium dichloride) for 15 minutes with mixing. 50 μl of bead/membrane mixture is then added to each well of a 96 well plate, followed by 50 μl of 4 nM 3H-Vasopressin (American Radiolabeled Chemicals). For total binding measurement 100 μl of binding buffer are added to the respective wells, for non-specific binding 100 μl of 8.4 mM cold vasopressin and for compound testing 100 μl of a serial dilution of each compound in 2% dimethyl sulfoxide. The plate is incubated 1 h at room temperature, centrifuged 1 min at 1000 g and counted on a Packard Top-Count. Non-specific binding counts are subtracted from each well and data is normalized to the maximum specific binding set at 100%. To calculate an IC50 the curve is fitted using a non-linear regression model (XLfit) and the Ki is calculated using the Cheng-Prussoff equation.
For the compound `Cc1nc([C@H]2CC[C@H](c3nnc4n3-c3ccc(Cl)cc3CN(C)C4)CC2)ns1` (stereo in doubt) [Example 97, trans-8-Chloro-5-methyl-1-[4-(5-methyl-[1,2,4]thiadiazol-3-yl)-cyclohexyl]-5,6-dihydro-4H-2,3,5,10b-tetraaza-benzo[e]azulene], the Ki was 2.88 nM. On to `CC(C)(C)OC(=O)N1Cc2cc(Cl)ccc2-n2c(nnc2[C@H]2CC[C@H](c3ncco3)CC2)C1` [Example 1, trans-8-Chloro-1-(4-oxazol-2-yl-cyclohexyl)-4H,6H-2,3,5,10b-tetraaza-benzo[e]azulene-5-carboxylic acid tert-butyl ester], for which the Ki was 1 nM.

`Clc1ccc2c(c1)CNCc1nnc([C@H]3CC[C@H](c4ncco4)CC3)n1-2` [Example 2, trans-8-Chloro-1-(4-oxazol-2-yl-cyclohexyl)-5,6-dihydro-4H-2,3,5,10b-tetraaza-benzo[e]azulene]: the Ki was 53.7 nM. As to `CN1Cc2cc(Cl)ccc2-n2c(nnc2[C@H]2CC[C@H](c3ncco3)CC2)C1` [Example 3, trans-8-Chloro-5-methyl-1-(4-oxazol-2-yl-cyclohexyl)-5,6-dihydro-4H-2,3,5,10b-tetraaza-benzo[e]azulene], the Ki is 10.5 nM. In the case of `Cc1coc([C@H]2CC[C@H](c3nnc4n3-c3ccc(Cl)cc3CN(C(=O)OC(C)(C)C)C4)CC2)n1` [Example 4, trans-8-Chloro-1-[4-(4-methyl-oxazol-2-yl)-cyclohexyl]-4H,6H-2,3,5,10b-tetraaza-benzo[e]azulene-5-carboxylic acid tert-butyl ester], the Ki was 0.398 nM.

Turning to `Cc1coc([C@H]2CC[C@H](c3nnc4n3-c3ccc(Cl)cc3CNC4)CC2)n1` [Example 5, trans-8-Chloro-1-[4-(4-methyl-oxazol-2-yl)-cyclohexyl]-5,6-dihydro-4H-2,3,5,10b-tetraaza-benzo[e]azulene], the Ki was 32.4 nM. Regarding `Cc1coc([C@H]2CC[C@H](c3nnc4n3-c3ccc(Cl)cc3CN(C)C4)CC2)n1` [Example 6, trans-8-Chloro-5-methyl-1-[4-(4-methyl-oxazol-2-yl)-cyclohexyl]-5,6-dihydro-4H-2,3,5,10b-tetraaza-benzo[e]azulene], the Ki is 3.31 nM. On to `Cc1cnc([C@H]2CC[C@H](c3nnc4n3-c3ccc(Cl)cc3CN(C(=O)OC(C)(C)C)C4)CC2)o1` [Example 7, trans-8-Chloro-1-[4-(5-methyl-oxazol-2-yl)-cyclohexyl]-4H,6H-2,3,5,10b-tetraaza-benzo[e]azulene-5-carboxylic acid tert-butyl ester], for which the Ki was 0.603 nM. With `Cc1cnc([C@H]2CC[C@H](c3nnc4n3-c3ccc(Cl)cc3CNC4)CC2)o1` [Example 8, trans-8-Chloro-1-[4-(5-methyl-oxazol-2-yl)-cyclohexyl]-5,6-dihydro-4H-2,3,5,10b-tetraaza-benzo[e]azulene] the figure was 18.6 nM. With `Cc1cnc([C@H]2CC[C@H](c3nnc4n3-c3ccc(Cl)cc3CN(C)C4)CC2)o1` [Example 9, trans-8-Chloro-5-methyl-1-[4-(5-methyl-oxazol-2-yl)-cyclohexyl]-5,6-dihydro-4H-2,3,5,10b-tetraaza-benzo[e]azulene] the figure was 2.19 nM. For `Cc1nc([C@H]2CC[C@H](c3nnc4n3-c3ccc(Cl)cc3CN(C(=O)OC(C)(C)C)C4)CC2)oc1C` [Example 10, trans-8-Chloro-1-[4-(4,5-dimethyl-oxazol-2-yl)-cyclohexyl]-4H,6H-2,3,5,10b-tetraaza-benzo[e]azulene-5-carboxylic acid tert-butyl ester], the Ki was 0.525 nM. Regarding `Cc1nc([C@H]2CC[C@H](c3nnc4n3-c3ccc(Cl)cc3CNC4)CC2)oc1C` [Example 11, trans-8-Chloro-1-[4-(4,5-dimethyl-oxazol-2-yl)-cyclohexyl]-5,6-dihydro-4H-2,3,5,10b-tetraaza-benzo[e]azulene], the Ki was 5.5 nM. As to `Cc1nc([C@H]2CC[C@H](c3nnc4n3-c3ccc(Cl)cc3CN(C)C4)CC2)oc1C` [Example 12, trans-8-Chloro-5-methyl-1-[4-(4,5-dimethyl-oxazol-2-yl)-cyclohexyl]-5,6-dihydro-4H-2,3,5,10b-tetraaza-benzo[e]azulene], the Ki was 0.851 nM. In the case of `CC(C)(C)OC(=O)N1Cc2cc(Cl)ccc2-n2c(nnc2[C@H]2CC[C@H](c3nccs3)CC2)C1` [Example 13, trans-8-Chloro-1-(4-thiazol-2-yl-cyclohexyl)-4H,6H-2,3,5,10b-tetraaza-benzo[e]azulene-5-carboxylic acid tert-butyl ester], the Ki is 1 nM. Take `Clc1ccc2c(c1)CNCc1nnc([C@H]3CC[C@H](c4nccs4)CC3)n1-2` [Example 14, trans-8-Chloro-1-(4-thiazol-2-yl-cyclohexyl)-5,6-dihydro-4H-2,3,5,10b-tetraaza-benzo[e]azulene]: the Ki is 28.2 nM. In the case of `CN1Cc2cc(Cl)ccc2-n2c(nnc2[C@H]2CC[C@H](c3nccs3)CC2)C1` [Example 15, trans-8-Chloro-5-methyl-1-(4-thiazol-2-yl-cyclohexyl)-5,6-dihydro-4H-2,3,5,10b-tetraaza-benzo[e]azulene], the Ki was 3.31 nM. For the compound `Cc1csc([C@H]2CC[C@H](c3nnc4n3-c3ccc(Cl)cc3CN(C(=O)OC(C)(C)C)C4)CC2)n1` [Example 16, trans-8-Chloro-1-[4-(4-methyl-thiazol-2-yl)-cyclohexyl]-4H,6H-2,3,5,10b-tetraaza-benzo[e]azulene-5-carboxylic acid tert-butyl ester], the Ki is 0.302 nM. Consider `Cc1csc([C@H]2CC[C@H](c3nnc4n3-c3ccc(Cl)cc3CNC4)CC2)n1` [Example 17, trans-8-Chloro-1-[4-(4-methyl-thiazol-2-yl)-cyclohexyl]-5,6-dihydro-4H-2,3,5,10b-tetraaza-benzo[e]azulene], for which the Ki is 7.59 nM.

Take `Cc1csc([C@H]2CC[C@H](c3nnc4n3-c3ccc(Cl)cc3CN(C)C4)CC2)n1` [Example 18, trans-8-Chloro-5-methyl-1-[4-(4-methyl-thiazol-2-yl)-cyclohexyl]-5,6-dihydro-4H-2,3,5,10b-tetraaza-benzo[e]azulene]: the Ki was 1.7 nM.

Take `Cc1nc([C@H]2CC[C@H](c3nnc4n3-c3ccc(Cl)cc3CN(C(=O)OC(C)(C)C)C4)CC2)cs1` [Example 19, trans-8-Chloro-1-[4-(2-methyl-thiazol-4-yl)-cyclohexyl]-4H,6H-2,3,5,10b-tetraaza-benzo[e]azulene-5-carboxylic acid tert-butyl ester]: the Ki is 0.2 nM.

In the case of `Cc1nc([C@H]2CC[C@H](c3nnc4n3-c3ccc(Cl)cc3CNC4)CC2)cs1` [Example 20, trans-8-Chloro-1-[4-(2-methyl-thiazol-4-yl)-cyclohexyl]-5,6-dihydro-4H-2,3,5,10b-tetraaza-benzo[e]azulene], the Ki was 12.3 nM. Turning to `Cc1nc([C@H]2CC[C@H](c3nnc4n3-c3ccc(Cl)cc3CN(C)C4)CC2)cs1` [Example 21, trans-8-Chloro-5-methyl-1-[4-(2-methyl-thiazol-4-yl)-cyclohexyl]-5,6-dihydro-4H-2,3,5,10b-tetraaza-benzo[e]azulene], the Ki is 1.7 nM. The value for `Cc1cc([C@H]2CC[C@H](c3nnc4n3-c3ccc(Cl)cc3CN(C(=O)OC(C)(C)C)C4)CC2)no1` [Example 22, trans-8-Chloro-1-[4-(5-methyl-isoxazol-3-yl)-cyclohexyl]-4H,6H-2,3,5,10b-tetraaza-benzo[e]azulene-5-carboxylic acid tert-butyl ester] was 0.302 nM.
